This is an account of results in patent US20170305882A1, “BENZYL SUBSTITUTED INDAZOLES AS BUB1 KINASE INHIBITORS” (Bayer Pharma Aktiengesellschaft, priority 2014, published 2017).

The structures appear in SMILES notation. pIC50: −log10 of the molar value. Bounds are passed on as bounds.

The target in assay [1] is T1, (recombinant) catalytic domain of human Bub1 (amino acids 704-1085) (Homo sapiens, UniProt O43683).
T1 construct: catalytic domain of human Bub1 (amino acids 704-1085); 6xHis (N); made in house; host or cells: Hi5 insect cells
As to the kind of experiment: Equilibrium probe competition assay (TR-FRET kinase binding assay). The following applies: read-out: IC50 (Assay 5, probe competition). From the text:
Equilibrium Probe Competition Assay:
Bub1 binding affinity of compounds described in the present invention were quantified using a time-resolved fluorescence energy transfer (TR-FRET) kinase binding assay which measures displacement of the synthetic fluorescent probe 5-[({2-[2-({2-[1-(4-ethoxy-2,6-difluorobenzyl)-1H-indazol-3-yl]-4-(pyridin-4-ylamino)pyrimidin-5-yl}oxy)ethoxy]ethyl}carbamothioyl)amino]-2-(6-hydroxy-3-oxo-3H-xanthen-9-yl)benzoic acid (5-5-1) by the (recombinant) catalytic domain of human Bub1 (amino acids 704-1085). The enzyme was expressed in Hi5 insect cells with N-terminal 6×His/AviTag@ seqences, purified by affinity-(Ni-NTA) and size exclusion chromatography and site-specific biotinylated ex-vivo using a commercially available kit (Avidity).
In a typical assay 11 different concentrations of each compound (0.1 nM, 0.33 nM, 1.1 nM, 3.8 nM, 13 nM, 44 nM, ˜0.15 μM, ˜0.51 μM, ˜1.7 μM, 5.9 μM and 20 μM) were tested in duplicate within the same microtiter plate. To this end, 100-fold concentrated compound solutions (in DMSO) were made by serial dilution (1:3.4) of freshly prepared 2 mM stocks in a clear low volume 384-well source microtiter plate (Greiner Bio-One, Frickenhausen, Germany), from which 50 nl of compounds were transferred into a black low volume test microtiter plate from the same supplier. Subsequently 2 μL of a solution containing biotinylated Bub1 (the final concentration of Bub1 was adjusted depending on the activity of the enzyme lot in order to be within the linear dynamic range of the assay: typically ˜200 pM were used) and 1 nM Streptavidin Terbium Cryptate (Cisbio, No. 610SATLB) in aqueous assay buffer [50 mM Tris/HCl pH 7.5, 200 mM potassium chloride (KCl), 1.0 mM dithiothreitol (DTT), 0.1 mM sodium ortho-vanadate, 1% (v/v) glycerol, 0.01% (w/v) bovine serum albumine (BSA), 0.005% (v/v) Triton X-100 (Sigma), were added to the compounds in the test plate and the mixture was incubated for 15 min at 22′C to allow pre-equilibration of the putative enzyme-inhibitor complexes before the start of the probe competition reaction, which was initiated by the addition of 3 μL 1.67-fold concentrated solution (in assay buffer) of 5-5-1 (final concentration: 1.5 nM). The resulting mixture (5 μL final volume) was Incubated at 220 during 0, 15, 30, 60, 120, 240 and 1440 min. After each time point the resonance energy transfer from the Streptavidin Tb cryptate to the 3′,6′-dihydroxy-3H-spiro[2-benzofuran-1,9′-xanthen]-3-one moiety of 5-5-1 was measured in order to quantify the amount of fluorescent probe displaced by the test compounds. To this end, the fluorescence emissions at 520 nm and 490 nm after excitation at 330-350 nm were measured in a Pherastar FS TR-FRET plate reader, (BMG Lab technologies, Offenburg, Germany) and the ratio of the emissions (520 nm/490 nm) was taken as Indicator for the amount of Bub1/5-5-1 equilibrium complexes. The data were normalized using two sets of control wells for high-(=enzyme reaction without inhibitor=0%=Minimum inhibition) and low-(=all assay components without enzyme=100%=Maximum inhibition) Bub1 activity. IC50 values were calculated by fitting the normalized inhibition data to a 4-parameter logistic equation (Minimum, Maximum, IC50, Hill; Y=Max+(Min−Max)/(1+(X/IC50)Hill)).
(In general: In TR-FRET formats the signal depends on donor and acceptor labels being close together.)

Assay [2] deals with T1, (recombinant) catalytic domain of human Bub1 (amino acids 704-1085). Nature of the assay: Bub1 kinase assay (TR-FRET). It counts as biochemical. The following applies: ATP 10 μM, 60 min reaction, pH 7.5; read-out: Biological Assay 1: Bub1 kinase assay median IC50.
Assay [3] relates to HeLa human cervical tumor cells. As to the kind of experiment: Proliferation Assay (HeLa + Paclitaxel). It counts as cell-based. Conditions: 3 nM paclitaxel, test substance 92 hours; read-out: Biological Assay 3: Proliferation Assay (HeLa + Paclitaxel) IC50. From the text: Proliferation Assay (HeLa+Paclitaxel):
The subject of assay [4] is pre-induced phospho-histone 2A (kinase activity of Bub1). As to the kind of experiment: H2A Abrogation-Assay (cell-based mechanistic assay, pre-treatment with Nocodazole). Conditions: Nocodazole 16 h, then test compound 1 h; read-out: Biological Assay 4:2: H2A Abrogation IC50. From the text: Biological Assay 4.2: Abrogation-Assay
This assay measures the inhibition of histone 2A phosphorylation, which was induced by pre-treatment of the cells with Nocodazole, by a Bub1 kinase inhibitor.

In assay [5] the test system is histone 2A phosphorylation (kinase activity of Bub1). As to the kind of experiment: H2A Formation-Assay (cell-based mechanistic assay, co-treatment with Nocodazole). Conditions: 16 h, read-out: Biological Assay 4.1: H2A Formation IC50.
The subject of assay [6] is HeLa human cervical tumor cells. Nature of the assay: Proliferation assay (HeLa cell line). Type of assay: cell-based. The following applies: 96 h, 4 days incubation, crystal violet, read-out: Biological Assay 2: Proliferation assay (HeLa cell line) median IC50. From the text: Human tumour cells were originally obtained from the American Type Culture Collection (ATCC), the Deutsche Sammlung von Mikroorganismen und Zellkulturen (DSMZ, German Collection of Microorganisms and Cell Cultures), or Epo GmbH Berlin.

Consider `CCOc1cc(F)c(Cn2nc(-c3ncc(OCCCO)c(Nc4ccncc4Cl)n3)c3ccccc32)c(F)c1` [Example 2-1-6, 3-{[4-[(3-chloropyridin-4-yl)amino]-2-[1-(4-ethoxy-2,6-difluorobenzyl)-1H-indazol-3-yl]pyrimidin-5-yl}oxy)propan-1-ol], for which the pIC50 in assay [1] (Time 15 min) is 8.77; in assay [1] (Time 30 min), 9.06; in assay [1] (Time 60 min), 9.07; in assay [1] (Time 90 min), 8.92; in assay [1] (Time 120 min), 9.42; in assay [1] (Time 240 min), 9.51. Further, the pIC50 in assay [1] (Time 1440 min) was 9.70; in assay [2], 8.08; in assay [3], 6.92; in assay [4], 7.24; in assay [5], 7.35; in assay [6] it was 5.23.
Consider `CCOc1cc(F)c(Cn2nc(-c3ncc(OCCCO)c(Nc4ccnc(NC(C)=O)c4)n3)c3ccccc32)c(F)c1` [Example 2-1-5, N-[4-({2-[1-(4-ethoxy-2,6-difluorobenzyl)-1H-indazol-3-yl]-5-(3-hydroxypropoxy)pyrimidin-4-yl}amino)pyridin-2-yl]acetamide], for which the pIC50 is 9.23 in assay [1] (Time 15 min); 9.31 in assay [1] (Time 30 min); 9.49 in assay [1] (Time 60 min); 9.59 in assay [1] (Time 90 min); 9.70 in assay [1] (Time 120 min); 9.80 in assay [1] (Time 240 min). Also, the pIC50 is 10.01 in assay [1] (Time 1440 min); 8.46 in assay [2]; 7.00 in assay [3]; 8.36 in assay [4]; 7.55 in assay [5]; less than 5.00 in assay [6].
`Cc1nccc(Nc2nc(-c3nn(Cc4c(F)cc(OCC(F)(F)F)cc4F)c4ccccc34)ncc2OCCCO)n1` [Example 2-1-19, 3-[(2-{1-[2,6-difluoro-4-(2,2,2-trifluoroethoxy)benzyl]-1H-indazol-3-yl}-4-[(2-methylpyrimidin-4-yl)amino]pyrimidin-5-yl)oxy]propan-1-ol]: the pIC50 in assay [2] is 7.68; in assay [3] it was 6.92; in assay [4] it was 8.60; in assay [5] it was 8.46; in assay [6], less than 5.00.
